Read-outs that look alike come from different tables or passages of the source.

In data set [1] the test system is IL-1β production in THP-1 cells (LPS and ATP; NLRP3 inflammasome activation). Kind of data set: THP-1 IL-1β production inhibitory test. Format: cell-based, human. The conditions noted are these: PMA-differentiated THP-1 cells, LPS 50 ng/mL and ATP 5 mM, 2 hours, ELISA, read-out: IC50 (nM), IL-1β production. A digest of the protocol:
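THP-1 cells were differentiated with 50 ng/mL PMA for 2 days, then held 15 min at 37 °C. Cells were stimulated with 50 ng/mL LPS plus 5 mM ATP for 2 h, and supernatant IL-1β was measured by ELISA. IC50 came from sigmoidal Emax nonlinear regression.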

The test system of data set [2] is TNF-α production in THP-1 cells (LPS). In words: TNF-α production inhibitory test. The class given is cell-based. The conditions noted are these: Homo sapiens; PMA-differentiated THP-1 cells, LPS 50 ng/mL, 2 hours, ELISA. On the procedure: TNF-α Production Inhibitory Test
To THP-1 cells, 50 ng/mL PMA (phorbol myristate acetate, SIGMA, P1585) was added and then the cells were cultured at 37° C. for 2 days. The culture medium was exchanged with serum-free RPMI-1640 medium, and a compound known in concentration was added. The cells were cultured at 37° C. for 15 minutes. LPS (lipopolysaccharide, SIMGA, L2880) was added such that the final concentrations of them became 50 ng/mL. The cells were cultured at 37° C. for 2 hours. The supernatant was collected and the concentration of TNF-α was measured by ELISA (DuoSet ELISA human TNF-α, R&D Systems, DY201). The concentration of TNF-α was plotted against the logarithm of the concentration of the test compound, and the IC50 value was calculated by sigmoidal Emax model nonlinear regression analysis.
A general note: ELISA stands for enzyme-linked immunosorbent assay.

For another data set, the system named is 3T3 NRU phototoxicity. Kind of data set: In vitro phototoxicity test (3T3 NRU). The class given is cell-based. The conditions noted are these: ICH S10 / OECD 432 in vitro 3T3 NRU phototoxicity test. An excerpt: In Vitro Phototoxicity Test
The evaluation of in vitro phototoxicity tests was based on ICH S10: Guidelines for Evaluation of Phototoxicity of Drugs (Notification No. 0521-1) and OECD guideline for testing of chemicals 432: In vitro 3T3 NRU phototoxicity test, 2004, which was described in the OECD report.

Data set [3] has as its target human Ether-a-go-go Related Gene (hERG) channel (Homo sapiens, UniProt Q12809). Kind of data set: Safety pharmacological test: hERG channel inhibitory effect. The class given is biochemical. On the procedure: Safety Pharmacological Test
As a safety pharmacological test, the human Ether-a-go-go Related Gene (hereinafter referred to as hERG) channel inhibitory effect was evaluated. The hERG channel inhibitory effect was evaluated using a modified method described in Combinatorial Chemistry & High Throughput Screening, 12, 1, 78-95 (2009).
In general terms: hERG is a cardiac potassium channel; its block is linked to QT prolongation.

The subject of data set [4] is IL-1β p17 in cerebrospinal fluid. In words: Rat central nervous system IL-1β production test. The conditions noted are these: male Wistar rats, oral, LPS and BzATP in cisterna magna. The class given is in vivo. On the procedure: Rat Central Nervous System IL-1β Production Test
Male Wistar rats of 10-14 weeks old were administered with 12.5 μg/5 μL LPS (SIGMA, L2880) in the cisterna magna under isoflurane anesthesia. Two hours later, a test compound was orally administered. Further one hour later, 50 μg/5 μL BzATP (2′(3′)—O-(4-benzoylbenzoyl)adenosine 5′-triphosphate triethylammonium salt, SIGMA, B6396) was administered in the cisterna magna. Thirty minutes later, the cerebrospinal fluid was collected. The cerebrospinal fluid was subjected to Western blotting using an anti-IL-1β antibody (Millipore, AB1832P) to measure IL-1β p17, and then, the suppression rate thereof relative to the solvent-administered group was calculated.
In the Table, Dose refers to a dosage amount of each test compound, and Ex59, Ex75, Ex131, Ex132 and Ex164 represent Example 59, Example 75, Example 131, Example 132 and Example 164, respectively. It was confirmed that the compounds have inhibitory effects on IL-1β production.

Chain of human Ether-a-go-go Related Gene (hERG) channel (Q12809 whole entry): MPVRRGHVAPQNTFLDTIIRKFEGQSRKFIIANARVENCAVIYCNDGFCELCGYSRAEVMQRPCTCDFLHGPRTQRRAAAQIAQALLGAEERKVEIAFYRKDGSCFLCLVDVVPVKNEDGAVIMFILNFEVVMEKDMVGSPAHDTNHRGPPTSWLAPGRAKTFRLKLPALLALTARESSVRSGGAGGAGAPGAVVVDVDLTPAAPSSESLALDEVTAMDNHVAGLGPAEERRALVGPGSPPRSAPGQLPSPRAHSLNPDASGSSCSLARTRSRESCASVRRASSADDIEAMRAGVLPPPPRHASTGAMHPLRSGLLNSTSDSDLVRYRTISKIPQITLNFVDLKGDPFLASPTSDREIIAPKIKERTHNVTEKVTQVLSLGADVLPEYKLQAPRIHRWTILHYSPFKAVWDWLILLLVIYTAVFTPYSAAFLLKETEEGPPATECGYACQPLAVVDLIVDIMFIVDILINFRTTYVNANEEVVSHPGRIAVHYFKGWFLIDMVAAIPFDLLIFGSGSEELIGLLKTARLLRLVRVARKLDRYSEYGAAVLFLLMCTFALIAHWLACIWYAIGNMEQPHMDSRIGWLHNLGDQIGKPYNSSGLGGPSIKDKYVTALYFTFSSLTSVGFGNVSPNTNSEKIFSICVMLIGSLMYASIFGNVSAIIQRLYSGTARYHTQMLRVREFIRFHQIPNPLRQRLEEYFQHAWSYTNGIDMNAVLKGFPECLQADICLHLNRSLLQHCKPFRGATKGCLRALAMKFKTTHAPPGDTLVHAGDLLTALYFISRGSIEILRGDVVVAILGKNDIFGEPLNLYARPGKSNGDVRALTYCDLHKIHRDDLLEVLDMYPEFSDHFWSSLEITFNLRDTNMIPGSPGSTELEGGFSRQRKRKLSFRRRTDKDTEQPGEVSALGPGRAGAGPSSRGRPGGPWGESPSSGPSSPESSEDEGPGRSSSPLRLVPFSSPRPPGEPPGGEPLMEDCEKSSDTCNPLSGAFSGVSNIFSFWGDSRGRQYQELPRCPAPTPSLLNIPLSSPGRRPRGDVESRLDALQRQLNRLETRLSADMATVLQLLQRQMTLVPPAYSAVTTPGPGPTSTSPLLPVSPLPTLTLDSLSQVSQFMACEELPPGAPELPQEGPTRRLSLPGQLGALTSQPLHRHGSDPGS

For the molecule `Cc1nc(N[C@@H]2CCCN(C)C2)nnc1-c1ccc(OC(F)F)cc1O` [Example 174, 5-(difluoromethoxy)-2-(5-methyl-3-{[(3R)-1-methylpiperidin-3-yl]amino}-1,2,4-triazin-6-yl)phenol], the IC50 in data set [1] (Homo sapiens, THP-1, 2 h) is 1.1 nM; in data set [2], at least 10000 nM.
Consider `Cc1nc(N[C@@H]2CCCC[C@H]2O)nnc1-c1ccc(OC(F)F)cc1O` [Example 131, 5-(difluoromethoxy)-2-(3-{[(1R,2R)-2-hydroxycyclohexyl]amino}-5-methyl-1,2,4-triazin-6-yl)phenol], for which the phototoxic effect result in the data set on 3T3 NRU phototoxicity is reported as “no phototoxic effect”. For the same molecule, the IC50 in data set [1] (Homo sapiens, THP-1, 2 h) is 9.5 nM; in data set [3], at least 10000 nM; in data set [2], at least 10000 nM.
In the case of `Cc1nc(N[C@@H]2CCCC[C@H]2N)nnc1-c1ccc(C(F)(F)F)cc1O` [Ex132], the “suppression rate of IL-1β p17 relative to the solvent-administered group” value in data set [4] (Dose 0.3 mg/kg) is listed as −3.7%^; in data set [4] (Dose 1 mg/kg), 88%; in data set [4] (Dose 3 mg/kg) it was 88%.
Take `Cc1nc(N[C@@H]2CCOC[C@H]2O)nnc1-c1ccc(Cl)cc1O` [Example 31, (3S,4R)-4-{[6-(4-chloro-2-hydroxyphenyl)-5-methyl-1,2,4-triazin-3-yl]amino}oxan-3-ol]: the IC50 was 25 nM in data set [1] (Homo sapiens, THP-1, 2 h) and at least 10000 nM in data set [2].
As to `Cc1nc(N[C@@H]2CCCN(C)C2)nnc1-c1ccc(C(F)(F)F)cc1O` [Example 164], the phototoxic effect entry in the data set on 3T3 NRU phototoxicity is “no phototoxic effect”. The IC50 in data set [1] is 1.5 nM; in data set [3] it was at least 10000 nM; in data set [2], at least 10000 nM.
Turning to `COc1ccc(-c2nnc(N[C@@H]3CCCC[C@H]3O)nc2C)c(O)c1` [Ex59], the “suppression rate of IL-1β p17 relative to the solvent-administered group” value was 45% in data set [4] (Dose 0.3 mg/kg), 54% in data set [4] (Dose 1 mg/kg) and 85% in data set [4] (Dose 3 mg/kg).
With `Cc1nc(N[C@@H]2CCC[C@H](O)C2)nnc1-c1ccc(C(F)(F)F)cc1O` [Ex75], the “suppression rate of IL-1β p17 relative to the solvent-administered group” value in data set [4] (Dose 0.3 mg/kg) amounted to 12%; in data set [4] (Dose 1 mg/kg), 73%; in data set [4] (Dose 3 mg/kg), 100%.
On to `Cc1nc(NC[C@H]2CNCCO2)nnc1-c1ccc(C(F)(F)F)cc1O` [Example 141, 2-[5-methyl-3-({[(2R)-morpholin-2-yl]methyl}amino)-1,2,4-triazin-6-yl]-5-(trifluoromethyl)phenol], for which the half-inhibitory concentration (IC50) is 470 nM in data set [1] (Homo sapiens, THP-1, 2 h) and at least 10000 nM in data set [2].
Consider `COc1ccc(-c2nnc(N[C@@H]3CCCC[C@H]3O)nc2C)c(O)c1` [Example 59, 2-(3-{[(1R,2R)-2-hydroxycyclohexyl]amino}-5-methyl-1,2,4-triazin-6-yl)-5-methoxyphenol], for which the phototoxic effect result with 3T3 NRU phototoxicity was “no phototoxic effect”. The IC50 is 14 nM in data set [1] (Homo sapiens, THP-1, 2 h); at least 10000 nM in data set [3]; at least 10000 nM in data set [2].
As for `CC1(O)CC(Nc2nnc(-c3ccc(C(F)(F)F)cc3O)c(C3CC3)n2)C1` (centres unmarked) [Example 108, 2-(5-cyclopropyl-3-{[(1s,3s)-3-hydroxy-3-methylcyclobutyl]amino}-1,2,4-triazin-6-yl)-5-(trifluoromethyl)phenol], the IC50 in data set [1] (Homo sapiens, THP-1, 2 h) is 21 nM; in data set [2], at least 10000 nM.
Regarding `Cc1nc(N[C@@H]2CCCN(C)C2)nnc1-c1ccc(C(F)(F)F)cc1O` [Ex164], the “suppression rate of IL-1β p17 relative to the solvent-administered group” value in data set [4] (Dose 0.3 mg/kg) stood at 67%; in data set [4] (Dose 1 mg/kg), 81%; in data set [4] (Dose 3 mg/kg), 80%.
In the case of `Cc1nc(N[C@@H]2CCC[C@H](O)C2)nnc1-c1ccc(C(F)(F)F)cc1O` [Example 75, 2-(3-{[(1R,3S)-3-hydroxycyclohexyl]amino}-5-methyl-1,2,4-triazin-6-yl)-5-(trifluoromethyl)phenol], the phototoxic effect result in the data set with 3T3 NRU phototoxicity is recorded as “no phototoxic effect”. Moreover, the IC50 in data set [1] (Homo sapiens, THP-1, 2 h) is 6.5 nM; in data set [3] it was at least 10000 nM; in data set [2] it was at least 10000 nM.
As for `Cc1nc(N[C@@H]2CCCC[C@H]2O)nnc1-c1ccc(OC(F)F)cc1O` [Ex131], the “suppression rate of IL-1β p17 relative to the solvent-administered group” value in data set [4] (Dose 0.3 mg/kg) is −33%; in data set [4] (Dose 1 mg/kg), −54%; in data set [4] (Dose 3 mg/kg), 61%.
Turning to `Cc1nc(N[C@@H]2CCCN(C3CC3)C2)nnc1-c1ccc(C(F)(F)F)cc1O` [Example 73, 2-(3-{[(3R)-1-cyclopropylpiperidin-3-yl]amino}-5-methyl-1,2,4-triazin-6-yl)-5-(trifluoromethyl)phenol], the half-maximal inhibitory concentration (IC50) was 1.3 nM in data set [1] (Homo sapiens, THP-1, 2 h) and at least 10000 nM in data set [2].
In the case of `Cc1nc(N[C@@H]2CCCC[C@H]2O)nnc1-c1ccc(OC(F)(F)F)cc1O` [Example 27, 2-(3-{[(1R,2R)-2-hydroxycyclohexyl]amino}-5-methyl-1,2,4-triazin-6-yl)-5-(trifluoromethoxy)phenol], the 50% inhibitory concentration (IC50) is 10 nM in data set [1] (Homo sapiens, THP-1, 2 h) and at least 10000 nM in data set [2].
On to `Cc1nc(N[C@@H]2CCCC[C@H]2N)nnc1-c1ccc(C(F)(F)F)cc1O` [Example 132, 2-(3-{[(1R,2R)-2-aminocyclohexyl]amino}-5-methyl-1,2,4-triazin-6-yl)-5-(trifluoromethyl)phenol], for which the phototoxic effect entry in the data set on 3T3 NRU phototoxicity was “no phototoxic effect”. In addition, the IC50 in data set [1] (Homo sapiens, THP-1, 2 h) was 15 nM; in data set [3], at least 10000 nM; in data set [2], at least 10000 nM.

As usually defined, the IC50 is the concentration that gives 50% inhibition.

(Values after US12692241B2, “Substituted triazine compound” (Nico Therapeutics, Inc., priority 2021, dated 2026).)
